In general, IC50 refers to the concentration at which inhibition is half-maximal. A low value points to greater potency in that assay.

Assay [1] deals with cultured human mast cells (CHMC). The assay can be described thus: CHMC low cell density IgE activation: tryptase assay. The assay is classed as cell-based. The following applies: anti-IgE. The gist of the method:
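Read-out: tryptase released into supernatant, measured by substrate turnover over 30 min at RT. Low-density CHMC (1000-1500 cells/well, per donor degranulation activity) in MT buffer, 1 hr at 37° C, then anti-IgE challenge 30 min at 37° C.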

For assay [2] the test system is unchanged. The assay can be described thus: CHMC low cell density ionomycin activation: tryptase assay. The assay is classed as cell-based.

On to `N#Cc1cnc(Nc2ccc(OCC(=O)NCC3CC3)cc2)nc1Nc1ccc(OCC(=O)NCC2CC2)cc1` [R925859, N2,N4-Bis[4-(N-cyclopropylmethylamino)carbonylmethyleneoxyphenyl]-5-cyano-2,4-pyrimidinediamine], for which the half-inhibitory concentration (IC50) in assay [1] and in assay [2] was > 10 µM each time.
As to `CCCCNC(=O)COc1ccc(Nc2ncc(C#N)c(Nc3ccc(OCC(=O)NCCCC)cc3)n2)cc1` [R925860, N2,N4-Bis[4-(N-n-butylamino)carbonylmethyleneoxyphenyl]-5-cyano-2,4-pyrimidinediamine], the IC50 in assay [1] and in assay [2] was > 10 µM in each case.
In the case of `CC(C)NC(=O)COc1ccc(Nc2ncc(C#N)c(Nc3ccc(OCC(=O)NC(C)C)cc3)n2)cc1` [R925861, N2,N4-Bis[4-(N-isopropylamino)carbonylmethyleneoxyphenyl]-5-cyano-2,4-pyrimidinediamine], the IC50 in assay [1] and in assay [2] was > 10 µM each time.
For `CCOC(=O)COc1ccc(Nc2ncc(C(F)(F)F)c(Nc3ccc(OCC(=O)OCC)cc3)n2)cc1` [R925862, N2,N4-Bis[4-(ethoxycarbonylmethyleneoxy)phenyl]-5-trifluoromethyl-2,4-pyrimidinediamine], the IC50 in assay [1] is 0.7 µM; in assay [2], > 10 µM.
Taken in the same sequence, the figures for `COC(=O)COc1cccc(Nc2ncc(F)c(Nc3cccc(OCC(=O)OC)c3)n2)c1` [R926255, N2,N4-Bis[(3-methoxycarbonylmethyleneoxy)phenyl]-5-fluoro-2,4-pyrimidinediamine] were 1.4 µM and 4.5 µM.
In the case of `CCOC(=O)c1cnc(Nc2ccc3cn[nH]c3c2)nc1Nc1ccc2cn[nH]c2c1` [R926320, N2,N4-Bis(3-indazol-6-yl)-5-ethoxycarbonyl-2,4-pyrimidinediamine], the IC50 in assay [1] and in assay [2] was > 10 µM each time.
For the molecule `CCOC(=O)c1cnc(Nc2cccc3cn[nH]c23)nc1Nc1cccc2cn[nH]c12` [R926321, N2,N4-Bis(3-indazol-7-yl)-5-ethoxycarbonyl-2,4-pyrimidinediamine], the IC50 in assay [1] and in assay [2] was > 10 µM throughout.
Regarding `CCOC(=O)c1cnc(Nc2ccc3c(c2)NC(=O)CO3)nc1Nc1ccc2c(c1)NC(=O)CO2` [R926325, N2,N4-Bis[6-(1,4-benzoxazine-3-onyl)]-5-ethoxycarbonyl-2,4-pyrimidinediamine], the IC50 in assay [1] and in assay [2] was > 10 µM each time.
Take `Cc1ccc(Nc2ncc(F)c(Nc3ccc(C)c(O)c3)n2)cc1O` [R926341, N2,N4-Bis(-3-hydroxy-4-methylphenyl)-5-fluoro-2,4-pyrimidinediaminediamine]: the IC50 in assay [1] was 0.875 µM; in assay [2], > 10 µM.
In the same order, the values of `COCCOc1ccc(Nc2ncc(F)c(Nc3ccc(OCCOC)cc3)n2)cc1` [R926342, N2,N4-Bis[4-(2-methoxyethyleneoxy)phenyl]-5-fluoro-2,4-pyrimidinediamine] are 10 µM and > 10 µM.
In the same order, the values of `COc1ccc(Nc2ncc(F)c(Nc3ccc(OC)c(-c4ccccc4)c3)n2)cc1-c1ccccc1` [R926399, N2,N4-Bis[(4-methoxy-3-phenyl)phenyl]-5-fluoro-2,4-pyrimidinediamine] are > 10 µM and > 10 µM.
Taken in the same sequence, the figures for `COc1ccc(-c2ccccc2)cc1Nc1ncc(F)c(Nc2cc(-c3ccccc3)ccc2OC)n1` [R926400, N2,N4-Bis[(2-methoxy-5-phenyl)phenyl]-5-fluoro-2,4-pyrimidinediamine] were > 10 µM and > 10 µM.
In the case of `COc1cc(-c2ccccc2)c(C)cc1Nc1ncc(F)c(Nc2cc(C)c(-c3ccccc3)cc2OC)n1` [R926401, N2,N4-Bis[(2-methoxy-5-methyl-4-phenyl)phenyl]-5-fluoro-2,4-pyrimidinediamine], the IC50 in assay [1] and in assay [2] was > 10 µM throughout.
In the case of `Cc1ccc(-c2ccccc2)cc1Nc1ncc(F)c(Nc2cc(-c3ccccc3)ccc2C)n1` [R926402, N2,N4-Bis[(2-methyl-5-phenyl)phenyl]-5-fluoro-2,4-pyrimidinediamine], the IC50 in assay [1] and in assay [2] was > 10 µM throughout.
For `Fc1cnc(Nc2ccc3c(c2)OCCO3)nc1NNc1ccc2c(c1)OCO2` [R926406, N2-(3,4-Ethylenedioxyphenyl)-N4-(3,4-methylenedioxyphenylhydrazinyl)-5-fluoro-2-pyrimidineamine], the IC50 in assay [1] and in assay [2] was > 10 µM each time.
For the molecule `CSc1nc(Nc2ccc3c(c2)OCCO3)nc(Nc2ccc3c(c2)OCCO3)c1Cl` [R926475, N2,N4-Bis(3,4-ethyelenedioxyphenyl)-5-chloro-6-thiomethyl-2,4-pyrimidinediamine], the 50% inhibitory concentration (IC50) was 2.15 µM in assay [1] and > 10 µM in assay [2].
For the molecule `N#CCOc1ccc(Nc2ncc(F)c(Nc3ccc4c(c3)OCCO4)n2)cc1` [R926480, N2-(4-Cyanomethyleneoxyphenyl)-N4-(3,4-ethylenedioxyphenyl)-5-fluoro-2,4-pyrimidinediamine], the values for the IC50 in assay [1] and in assay [2] were 1.9 µM and > 10 µM, respectively.
As for `CCOC(=O)COc1cccc(Nc2ncc(F)c(Nc3ccc4c(c3)OCCO4)n2)c1` [R926482, N2-(3-Ethoxycarbonylmethyleneoxyphenyl)-N4-(3,4-ethylenedioxyphenyl)-5-fluoro-2,4-pyrimidinediamine], the IC50 in assay [1] was 1.04 µM; in assay [2], > 10 µM.
In the case of `O=C(COc1cccc(Nc2ncc(F)c(Nc3ccc4c(c3)OCCO4)n2)c1)N1CCOCC1` [R926484, N4-(3,4-Ethylenedioxyphenyl)-5-fluoro-N2-[3-(N-morpholino)carbonylmethyleneoxyphenyl]-2,4-pyrimidinediamine], the IC50 in assay [1] was 1.52 µM; in assay [2], > 10 µM.
Taken in the same sequence, the figures for `CC(C)Oc1cccc(Nc2nc(Nc3ccc4oc(C(=O)N5CCOCC5)cc4c3)ncc2F)c1` [R926489, 5-Fluoro-N4-(3-isopropoxyphenyl)-N2-[2-(N-morpholino)carbonylbenzofuran-5-yl]-2,4-pyrimidinediamine] were 1.41 µM and > 10 µM.
In the same order, the values of `Fc1cnc(Nc2ccc3oc(CN4CCOCC4)cc3c2)nc1Nc1ccc2c(c1)OCCO2` [R926490, N4-(3,4-Ethylenedioxyphenyl)-5-fluoro-N2-[2-(N-morpholinomethylene)benzofuran-5-yl]-2,4-pyrimidinediamine] are 1.57 µM and > 10 µM.
In the same order, the values of `O=C(COc1cccc(Nc2ncc(F)c(Nc3ccc4c(c3)OCCO4)n2)c1)N1CCNCC1` [R926503, N4-(3,4-Ethylenedioxyphenyl)-5-fluoro-N2-[3-(N-piperazino)carbonylmethyleneoxyphenyl]-2,4-pyrimidinediamine] are 0.452 µM and > 10 µM.
In the case of `O=C(COc1cccc(Nc2ncc(F)c(Nc3cccc(O)c3)n2)c1)NCCO` [R926506, 5-Fluoro-N4-(3-hydroxyphenyl)-N2-[3-(N-2-hydroxyethylamino)carbonylmethyleneoxyphenyl]-2,4-pyrimidinediamine], the figures for the IC50 in assay [1] and in assay [2] were 0.343 µM and > 10 µM, respectively.
On to `CCOC(=O)c1cnc(N[C@@H](Cc2ccccc2)C(=O)OCC)nc1N[C@@H](Cc1ccccc1)C(=O)OCC` [R926526, 2,4-Bis[N-(L)-phenylalaninylethyl ester]-5-ethoxycarbonylpyrimidine], for which the IC50 in assay [1] and in assay [2] was > 10 µM each time.

For the origin of these results see patent publication US9499493B2, “2,4-pyrimidinediamine compounds and their uses” (Rigel Pharmaceuticals, Inc., priority 2002, dated 2016).
